These results are taken from ChEMBL document CHEMBL5360647, “A Systematic Survey of Reversibly Covalent Dipeptidyl Inhibitors of the SARS-CoV-2 Main Protease” (J Med Chem, 2023).

For the test, the system named is SARS-CoV-2. Description: Antiviral activity against SARS-CoV-2 USA-WA1/2020 infected in Vero E6 cells assessed as reduction in viral plaque formation incubated for 3 days by plaque reduction neutralization assay. Type of test: functional, organism-based. The note with it: Severe acute respiratory syndrome coronavirus 2, USA-WA1/2020, Vero C1008, 72 h. For orientation: Plaques are areas of infected cells; plaque reduction assays count them against a control.
For `O=C[C@H](C[C@@H]1CCNC1=O)NC(=O)C1CC2(CCCCC2)CN1C(=O)OCc1ccccc1` (stereo partly drawn), the EC50 is 370 nM.
Then `CC1(C)[C@@H]2[C@@H](C(=O)N[C@H](C=O)C[C@@H]3CCNC3=O)N(C(=O)OCc3ccccc3)C[C@@H]21`, with 1500 nM.
For `O=C[C@H](C[C@@H]1CCNC1=O)NC(=O)C1CC2(CCCC2)CN1C(=O)OCc1ccccc1` (stereo partly drawn) the value was 370 nM.

Usually EC50 stands for the concentration that produces a half-maximal response.
